Non-standard residues stand in square brackets, D forms with d. Residues, ends and D or L forms follow the SMILES beside them. *: point of attachment. Acetyl(1-adamantyl) = O=C(CC12CC3CC(CC(C3)C1)C2)*; Hexenoyl(2E,4S-Me) = CC[C@H](C)/C=C/C(=O)*; Leu(3R-OH) = CC(C)[C@@H](O)[C@H](N)C(=O)O; NH((S)CH(Me)CH2NMe2) = C[C@@H](CN(C)C)N*; Pro(4S-Me) = C[C@@H]1CN[C@H](C(=O)O)C1; Cyclopentanecarbonyl = O=C(C1CCCC1)*; Gly(octyl) = CCCCCCCC[C@H](N)C(=O)O; NH(CH2)3NMe2 = CN(C)CCCN*; X8 = C[C@@H](CN1CCCCC1)N*; NHCH2CH2NMe2 = CN(C)CCN*; Hexanoyl = CCCCCC(=O)*; Aib = CC(C)(N)C(=O)O; βAla = NCCC(=O)O
Assays:
[1] = system: Trypanosoma cruzi trypomastigote forms (Tulahuen strain); assay: Intracellular Trypanosoma cruzi assay in L6-cells, beta-galactosidase/CPRG readout; type: cell-based; settings: In vitro inhibition, read-out: T.cruzi.
Summary of the method: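 Readout was β-galactosidase cleavage of CPRG, read photometrically at 540 nm after 2–6 h colour development, giving IC50 values. Parasites: LacZ-expressing Tulahuen C2C4 strain grown in rat L6 myoblasts; run in triplicate.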

[2] = Cytotoxicity assay on L6-cells (Alamar Blue); settings: rat, Cytotox L6, Cytotoxicity against rat myoblast cells (L6)
[3] = system: intracellular Leishmania donovani (L.don. InMac); assay: Intracellular Leishmania donovani assay (L.don. InMac); type: cell-based; settings: In vitro inhibition
Description: (§1) Tests were done in triplicate.

Plasmodium falciparum = assay: 3H-hypoxanthine incorporation assay against Plasmodium falciparum; type: cell-based; settings: In vitro inhibition, read-out: P.falc NF5
Experimental: as §1
IC50 values were calculated by linear interpolation.

[4] = system: Trypanosoma brucei rhodesiense (STIB 900 strain); assay: Alamar Blue assay against Trypanosoma brucei rhodesiense grown in axenic medium; type: cell-based; settings: In vitro inhibition, read-out: T.b.rhod.
Summary of the method: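 Alamar Blue-based IC50 determination, in triplicate, on axenically grown STIB 900 trypanosomes. Melarsoprol included as reference.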

[5] = system: Axenically grown Leishmania donovani amastigotes (strain MHOM/ET/67/L82); assay: Axenic Leishmania donovani amastigote resazurin assay; type: cell-based; settings: In vitro inhibition, read-out: L.don. ax
Summary of the method: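 IC50 values derive from resazurin fluorescence (ex 536 nm, em 588 nm), expressed relative to the negative control, after 2-4 hours of plate development. Axenic amastigotes of strain MHOM/ET/67/L82 were used; each test run in triplicate.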

Compound	IC50 [1]	IC50 at 70 h [2]	IC50 [3]	IC50 (Plasmodium falciparum)	IC50 [4]	IC50 [5]
CCCCCCCC[C@H](NC(=O)[C@@H]1CCCN1C(=O)CC12CC3CC(CC(C3)C1)C2)C(=O)N[C@@H](CC(C)C)C(=O)NC(C)(C)C(=O)N[C@@H](CC(C)C)C(=O)N[C@@H](CC(C)C)C(=O)NC(C)(C)C(=O)NC(C)(C)C(=O)NCCC(=O)N[C@@H](C)CN(C)C [Compound 5771, (2S)-2-{[(2S)-1-[2-(adamantan-1-yl)acetyl]pyrrolidin-2-yl]formamido}-N-[(1S)-1-[(1-{[(1S)-1-{[(1S)-1-{[1-({1-[(2-{[(2S)-1-(dimethylamino)propan-2-yl]carbamoyl}ethyl)carbamoyl]-1-methylethyl}carbamoyl)-1-methylethyl]carbamoyl}-3-methylbutyl]carbamoyl}-3-methylbutyl]carbamoyl}-1-methylethyl)carbamoyl]-3-methylbutyl]decanamide] ({Acetyl(1-adamantyl)}-P[Gly(octyl)]L[Aib]LL[Aib][Aib][βAla]-{NH((S)CH(Me)CH2NMe2)})	42.1 nM	113 nM	58.6 nM	0.8 nM	6.9 nM	0.8 nM
CCCCCCCC[C@H](NC(=O)[C@@H]1CCCN1C(C)=O)C(=O)N[C@H](C(=O)NC(C)(C)C(=O)N[C@@H](CC(C)C)C(=O)N[C@@H](CC(C)C)C(=O)NC(C)(C)C(=O)NC(C)(C)C(=O)NCCC(=O)N[C@@H](C)CN(C)C)[C@H](O)C(C)C [Compound 5588, (2S)-2-{[(2S)-1-acetylpyrrolidin-2-yl]formamido}-N-[(1S,2R)-1-[(1-{[(1S)-1-{[(1S)-1-{[1-({1-[(2-{[(2S)-1-(dimethylamino)propan-2-yl]carbamoyl}ethyl)carbamoyl]-1-methylethyl}carbamoyl)-1-methylethyl]carbamoyl}-3-methylbutyl]carbamoyl}-3-methylbutyl]carbamoyl}-1-methylethyl)carbamoyl]-2-hydroxy-3-methylbutyl]decanamide] (Ac-P[Gly(octyl)][Leu(3R-OH)][Aib]LL[Aib][Aib][βAla]-{NH((S)CH(Me)CH2NMe2)})	2330 nM	3540 nM	463 nM	9.6 nM	6 nM	4.6 nM
CCCCCCCC[C@H](NC(=O)[C@@H]1CCCN1C(=O)CCCCC)C(=O)N[C@@H](CC(C)C)C(=O)NC(C)(C)C(=O)N[C@@H](CC(C)C)C(=O)N[C@@H](CC(C)C)C(=O)NC(C)(C)C(=O)NC(C)(C)C(=O)NCCC(=O)NCCN(C)C [Compound 5643, (2S)-N-[(1S)-1-[(1-{[(1S)-1-{[(1S)-1-{[1-({1-[(2-{[2-(dimethylamino)ethyl]carbamoyl}ethyl)carbamoyl]-1-methylethyl}carbamoyl)-1-methylethyl]carbamoyl}-3-methylbutyl]carbamoyl}-3-methylbutyl]carbamoyl}-1-methylethyl)carbamoyl]-3-methylbutyl]-2-{[(2S)-1-hexanoylpyrrolidin-2-yl]formamido}decanamide] (Hexanoyl-P[Gly(octyl)]L[Aib]LL[Aib][Aib][βAla]-NHCH2CH2NMe2)	89.8 nM	862 nM	107 nM	3 nM	4.9 nM	3.6 nM
CCCCCCCC[C@H](NC(=O)[C@@H]1CCCN1C(=O)/C=C/[C@@H](C)CC)C(=O)N[C@@H](CC(C)C)C(=O)NC(C)(C)C(=O)N[C@@H](CC(C)C)C(=O)N[C@@H](CC(C)C)C(=O)NC(C)(C)C(=O)NC(C)(C)C(=O)NCCC(=O)N[C@@H](C)CN(C)C [Compound 5562, (2S)-N-[(1S)-1-[(1-{[(1S)-1-{[(1S)-1-{[1-({1-[(2-{[(2S)-1-(dimethylamino)propan-2-yl]carbamoyl}ethyl)carbamoyl]-1-methylethyl}carbamoyl)-1-methylethyl]carbamoyl}-3-methylbutyl]carbamoyl}-3-methylbutyl]carbamoyl}-1-methylethyl)carbamoyl]-3-methylbutyl]-2-{[(2S)-1-[(2E,4S)-4-methylhex-2-enoyl]pyrrolidin-2-yl]formamido}decanamide] ({Hexenoyl(2E,4S-Me)}-P[Gly(octyl)]L[Aib]LL[Aib][Aib][βAla]-{NH((S)CH(Me)CH2NMe2)})	40.6 nM	459 nM	22.3 nM	0.3 nM	0.5 nM	1.3 nM
CCCCCCCC[C@H](NC(=O)C1CCCC1)C(=O)N[C@H](C(=O)NC(C)(C)C(=O)N[C@@H](CC(C)C)C(=O)N[C@@H](CC(C)C)C(=O)NC(C)(C)C(=O)NC(C)(C)C(=O)NCCC(=O)N[C@@H](C)CN(C)C)[C@@H](C)O [Compound 5641, (2S)-2-(cyclopentylformamido)-N-[(1S,2R)-1-[(1-{[(1S)-1-{[(1S)-1-{[1-({1-[(2-{[(2S)-1-(dimethylamino)propan-2-yl]carbamoyl}ethyl)carbamoyl]-1-methylethyl}carbamoyl)-1-methylethyl]carbamoyl}-3-methylbutyl]carbamoyl}-3-methylbutyl]carbamoyl}-1-methylethyl)carbamoyl]-2-hydroxypropyl]decanamide] (Cyclopentanecarbonyl-[Gly(octyl)]T[Aib]LL[Aib][Aib][βAla]-{NH((S)CH(Me)CH2NMe2)})	1400 nM	1670 nM	862 nM	72.9 nM	3.9 nM	8.2 nM
CCCCCCCC[C@H](NC(=O)[C@@H]1C[C@H](C)CN1C(=O)/C=C/[C@@H](C)CC)C(=O)N[C@H](C(=O)NC(C)(C)C(=O)N[C@@H](CC(C)C)C(=O)N[C@@H](CC(C)C)C(=O)NC(C)(C)C(=O)NC(C)(C)C(=O)NCCC(=O)N[C@@H](C)CN(C)C)[C@H](O)C(C)C [Compound 5492, (2S)-N-[(1S,2R)-1-[(1-{[(1S)-1-{[(1S)-1-{[1-({1-[(2-{[(2S)-1-(dimethylamino)propan-2-yl]carbamoyl}ethyl)carbamoyl]-1-methylethyl}carbamoyl)-1-methylethyl]carbamoyl}-3-methylbutyl]carbamoyl}-3-methylbutyl]carbamoyl}-1-methylethyl)carbamoyl]-2-hydroxy-3-methylbutyl]-2-{[(2S,4S)-4-methyl-1-[(2E,4S)-4-methylhex-2-enoyl]pyrrolidin-2-yl]formamido}decanamide] ({Hexenoyl(2E,4S-Me)}-[Pro(4S-Me)][Gly(octyl)][Leu(3R-OH)][Aib]LL[Aib][Aib][βAla]-{NH((S)CH(Me)CH2NMe2)})	113 nM	147 nM	36.6 nM	4.7 nM	5.5 nM	2 nM
CCCCCCCC[C@H](NC(=O)[C@@H]1CCCN1C(=O)CCCCC)C(=O)N[C@@H](CC(C)C)C(=O)NC(C)(C)C(=O)N[C@@H](CC(C)C)C(=O)N[C@@H](CC(C)C)C(=O)NC(C)(C)C(=O)NC(C)(C)C(=O)NCCC(=O)NCCCN(C)C [Compound 5890, (2S)-N-[(1S)-1-[(1-{[(1S)-1-{[(1S)-1-{[1-({1-[(2-{[3-(dimethylamino)propyl]carbamoyl}ethyl)carbamoyl]-1-methylethyl}carbamoyl)-1-methylethyl]carbamoyl}-3-methylbutyl]carbamoyl}-3-methylbutyl]carbamoyl}-1-methylethyl)carbamoyl]-3-methylbutyl]-2-{[(2S)-1-hexanoylpyrrolidin-2-yl]formamido}decanamide] (Hexanoyl-P[Gly(octyl)]L[Aib]LL[Aib][Aib][βAla]-{NH(CH2)3NMe2})	44 nM	592 nM	42500 nM	0.2 nM	44200 nM	0.7 nM
CCCCCCCC[C@H](NC(=O)[C@@H]1CCCN1C(=O)CCCCC)C(=O)N[C@@H](CC(C)C)C(=O)NC(C)(C)C(=O)N[C@@H](CC(C)C)C(=O)N[C@@H](CC(C)C)C(=O)NC(C)(C)C(=O)NC(C)(C)C(=O)NCCC(=O)N[C@@H](C)CN1CCCCC1 [Compound 5886, (2S)-2-{[(2S)-1-hexanoylpyrrolidin-2-yl]formamido}-N-[(1S)-3-methyl-1-[(1-methyl-1-{[(1S)-3-methyl-1-{[(1S)-3-methyl-1-{[1-methyl-1-({1-methyl-1-[(2-{[(2S)-1-(piperidin-1-yl)propan-2-yl]carbamoyl}ethyl)carbamoyl]ethyl}carbamoyl)ethyl]carbamoyl}butyl]carbamoyl}butyl]carbamoyl}ethyl)carbamoyl]butyl]decanamide] (Hexanoyl-P[Gly(octyl)]L[Aib]LL[Aib][Aib][βAla]-X8)	4260 nM	938 nM	602 nM	36100 nM	496 nM	190 nM
CCCCCCCC[C@H](NC(=O)/C=C/[C@@H](C)CC)C(=O)N[C@H](C(=O)NC(C)(C)C(=O)N[C@@H](CC(C)C)C(=O)N[C@@H](CC(C)C)C(=O)NC(C)(C)C(=O)NC(C)(C)C(=O)NCCC(=O)N[C@@H](C)CN(C)C)[C@H](O)C(C)C [Compound 5586, (2S)-N-[(1S,2R)-1-[(1-{[(1S)-1-{[(1S)-1-{[1-({1-[(2-{[(2S)-1-(dimethylamino)propan-2-yl]carbamoyl}ethyl)carbamoyl]-1-methylethyl}carbamoyl)-1-methylethyl]carbamoyl}-3-methylbutyl]carbamoyl}-3-methylbutyl]carbamoyl}-1-methylethyl)carbamoyl]-2-hydroxy-3-methylbutyl]-2-[(2E,4S)-4-methylhex-2-enamido]decanamide] ({Hexenoyl(2E,4S-Me)}-[Gly(octyl)][Leu(3R-OH)][Aib]LL[Aib][Aib][βAla]-{NH((S)CH(Me)CH2NMe2)})	108 nM	1150 nM	104 nM	18.8 nM	6.6 nM	4.7 nM

— patent EP3345917A1, “ANTIPROTOZOAL COMPOUNDS” (Bacoba AG, priority 2017, dated 2018)
